Active and inactive are the calls of the source. The calls are words filed in the database; no cut-off is given here.
How the values were obtained:
[1] = molecular target: T1, Melanocortin receptor 4 (Homo sapiens, UniProt P32245); experiment: Displacement of [125I]NDP-MSH from MC4R receptor in HEK293 cells; format: cell-based
[2] = molecular target: T1, Melanocortin receptor 4; experiment: Antagonist activity at human MC4 receptor in HEK293 cells assessed as inhibition of alpha-MSH stimulated cAMP production
[3] = molecular target: Melanocyte-stimulating hormone receptor (Homo sapiens) (UniProt Q01726); experiment: Displacement of [125I]NDP-MSH from MC1R receptor in HEK293 cells; format: cell-based
Chain of Melanocyte-stimulating hormone receptor (Homo sapiens) (Q01726 whole entry, looked up): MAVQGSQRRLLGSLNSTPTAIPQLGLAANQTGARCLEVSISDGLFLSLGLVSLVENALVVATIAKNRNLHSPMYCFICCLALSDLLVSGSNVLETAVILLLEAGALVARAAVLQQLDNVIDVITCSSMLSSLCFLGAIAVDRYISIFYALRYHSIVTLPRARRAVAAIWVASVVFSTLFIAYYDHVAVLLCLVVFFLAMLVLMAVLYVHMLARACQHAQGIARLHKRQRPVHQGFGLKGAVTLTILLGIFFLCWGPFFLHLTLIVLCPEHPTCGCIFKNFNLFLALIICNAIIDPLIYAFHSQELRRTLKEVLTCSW

[4] = molecular target: Melanocortin receptor 3 (Homo sapiens, UniProt P41968); experiment: Displacement of [125I]NDP-MSH from MC3R receptor in HEK293 cells; format: cell-based
Chain of Melanocortin receptor 3 (P41968 whole entry): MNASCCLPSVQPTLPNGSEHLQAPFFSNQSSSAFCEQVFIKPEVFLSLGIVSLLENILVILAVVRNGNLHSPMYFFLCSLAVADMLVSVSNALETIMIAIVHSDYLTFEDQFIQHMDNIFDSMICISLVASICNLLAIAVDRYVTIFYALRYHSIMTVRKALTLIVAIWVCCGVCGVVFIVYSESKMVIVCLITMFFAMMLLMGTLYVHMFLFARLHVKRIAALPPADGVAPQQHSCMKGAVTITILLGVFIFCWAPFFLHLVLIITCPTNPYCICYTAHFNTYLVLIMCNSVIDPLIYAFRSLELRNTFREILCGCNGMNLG

[5] = molecular target: Melanocortin receptor 5 (Homo sapiens, UniProt P33032); experiment: Displacement of [125I]NDP-MSH from MC5R receptor in HEK293 cells; format: cell-based
Chain of Melanocortin receptor 5 (P33032 whole entry): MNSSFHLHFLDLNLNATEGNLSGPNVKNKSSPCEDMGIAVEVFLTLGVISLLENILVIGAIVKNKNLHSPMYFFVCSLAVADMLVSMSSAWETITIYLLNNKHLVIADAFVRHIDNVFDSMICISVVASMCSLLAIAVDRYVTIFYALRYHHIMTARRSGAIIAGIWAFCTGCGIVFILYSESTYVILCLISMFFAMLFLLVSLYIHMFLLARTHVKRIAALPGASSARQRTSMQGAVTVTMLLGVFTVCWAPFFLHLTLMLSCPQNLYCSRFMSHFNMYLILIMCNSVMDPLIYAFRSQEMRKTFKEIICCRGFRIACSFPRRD

[6] = molecular target: Melanocortin receptor 4 (Mus musculus, UniProt P56450); experiment: Binding affinity to C57BL/6J mouse MC4 receptor
Chain of Melanocortin receptor 4 (Mus musculus, UniProt P56450) (P56450 whole entry): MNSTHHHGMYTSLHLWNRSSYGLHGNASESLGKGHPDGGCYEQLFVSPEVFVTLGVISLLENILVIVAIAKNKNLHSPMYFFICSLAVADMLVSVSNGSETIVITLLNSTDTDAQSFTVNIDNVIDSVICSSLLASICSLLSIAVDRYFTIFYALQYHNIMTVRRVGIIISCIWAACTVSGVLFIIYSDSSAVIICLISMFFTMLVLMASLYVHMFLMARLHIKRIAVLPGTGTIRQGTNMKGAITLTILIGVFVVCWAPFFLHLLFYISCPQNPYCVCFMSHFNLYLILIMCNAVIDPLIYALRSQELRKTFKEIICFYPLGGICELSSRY

[7] = test system: Mus musculus; experiment: Increase in food intake in LLC-tumor bearing C57BL/6J mouse at 3 mg/kg, ip relative to control; format: functional, organism-based; parameters: dose 3 mg/kg
[8] = test system: Mus musculus; experiment: Increase in food intake in LLC-tumor bearing C57BL/6J mouse at 9 mg/kg, ip relative to control; format: functional, organism-based; parameters: dose 9 mg/kg
[9] = test system: Mus musculus; experiment: Increase in body weight in LLC-tumor bearing C57BL/6J mouse at 3 mg/kg, ip; format: functional, organism-based; parameters: dose 3 mg/kg
[10] = test system: Mus musculus; experiment: Increase in body weight in LLC-tumor bearing C57BL/6J mouse at 9 mg/kg, ip; format: functional, organism-based; parameters: dose 9 mg/kg
[11] = test system: Mus musculus; experiment: Increase in fat mass in LLC-tumor bearing C57BL/6J mouse at 3 mg/kg, ip; format: functional; settings: route intraperitoneal
[12] = test system: Mus musculus; experiment: Increase in fat mass in LLC-tumor bearing C57BL/6J mouse at 9 mg/kg, ip; format: functional; settings: route intraperitoneal
[13] = test system: Mus musculus; experiment: Increase in lean body mass in LLC-tumor bearing C57BL/6J mouse at 3 mg/kg, ip; format: functional; settings: route intraperitoneal
[14] = test system: Mus musculus; experiment: Increase in lean body mass in LLC-tumor bearing C57BL/6J mouse at 9 mg/kg, ip; format: functional; settings: route intraperitoneal
[15] = molecular target: Growth hormone secretagogue receptor type 1 (Homo sapiens, UniProt Q92847); experiment: Agonist activity at ghrelin receptor; format: functional
Chain of Growth hormone secretagogue receptor type 1 (Q92847 whole entry): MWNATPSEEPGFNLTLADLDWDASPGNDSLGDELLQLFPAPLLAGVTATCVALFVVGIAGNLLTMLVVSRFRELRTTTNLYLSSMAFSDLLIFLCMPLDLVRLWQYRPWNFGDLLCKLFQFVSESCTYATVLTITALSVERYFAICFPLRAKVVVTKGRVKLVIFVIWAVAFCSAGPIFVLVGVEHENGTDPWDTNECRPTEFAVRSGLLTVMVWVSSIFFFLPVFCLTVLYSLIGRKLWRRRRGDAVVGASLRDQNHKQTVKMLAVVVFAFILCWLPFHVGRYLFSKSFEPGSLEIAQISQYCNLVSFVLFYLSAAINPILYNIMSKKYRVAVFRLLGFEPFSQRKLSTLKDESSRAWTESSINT

[16] = molecular target: Melanocortin receptor 4 (Rattus norvegicus, UniProt P70596); experiment: Binding affinity to rat MC4 receptor
Chain of Melanocortin receptor 4 (Rattus norvegicus, UniProt P70596) (P70596 whole entry): as the sequence (P56450 whole entry) above, with Y21H, P36S, S199T, T239A, S329P, S330G counted along it

[17] = in vivo; settings: C57BL/6J, mouse, plasma, iv, 5 mg/kg
[18] = in vivo; settings: C57BL/6J, mouse, iv, 5 mg/kg
[19] = in vivo; settings: C57BL/6J, mouse, iv, 5 mg/kg; remark: listed apart in the source
[20] = in vivo; settings: C57BL/6J, mouse, plasma, iv, 5 mg/kg; remark: listed apart in the source
[21] = in vivo; settings: C57BL/6J, mouse, brain, iv, 5 mg/kg
[22] = in vivo; settings: C57BL/6J, mouse, brain, iv, 5 mg/kg; remark: listed apart in the source
[23] = in vivo; settings: C57BL/6J, mouse, po, 10 mg/kg
[24] = in vivo; settings: C57BL/6J, mouse, po, 10 mg/kg; remark: listed apart in the source
[25] = in vivo; settings: C57BL/6J, mouse, plasma, po, 10 mg/kg
[26] = in vivo; settings: C57BL/6J, mouse, po, 10 mg/kg; remark: listed apart in the source
[27] = in vivo; settings: C57BL/6J, mouse, brain, iv, 5 mg/kg; remark: listed apart in the source
[28] = in vivo; settings: C57BL/6J, mouse, brain, iv, 5 mg/kg; remark: listed apart in the source
[29] = physchem; settings: octanol/water
[30] = AUC (0 to 24 hrs) in brain of C57BL/6J mouse at 5 mg/kg, iv; format: ADME, organism-based; parameters: time < 24 hr, dose 5 mg/kg, route intravenous

T1 sequence (P32245 whole entry): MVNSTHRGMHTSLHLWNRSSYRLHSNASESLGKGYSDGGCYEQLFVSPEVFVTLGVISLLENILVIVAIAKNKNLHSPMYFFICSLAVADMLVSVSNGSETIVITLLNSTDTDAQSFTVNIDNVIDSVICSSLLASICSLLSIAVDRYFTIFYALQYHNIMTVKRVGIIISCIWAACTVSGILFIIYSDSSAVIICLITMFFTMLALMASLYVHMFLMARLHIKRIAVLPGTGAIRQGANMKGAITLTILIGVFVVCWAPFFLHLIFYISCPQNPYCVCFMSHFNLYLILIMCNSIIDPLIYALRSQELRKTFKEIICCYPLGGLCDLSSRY

SMILES: CC(=O)N[C@H](Cc1ccc(Cl)cc1Cl)C(=O)N1CCN(c2ccc(F)cc2[C@H](N)CC(C)C)CC1
- Ki [1]: 26 nM
- Activity [2]: Dose-dependent effect

SMILES: CC(C)C[C@@H](N)c1cccc(F)c1N1CCN(C(=O)[C@@H](Cc2ccc(Cl)cc2Cl)NC(=O)CCN)CC1
- Ki [1]: 2.3 nM
- Activity [2]: Dose-dependent effect

SMILES: CC(C)C[C@H](N)c1cc(C(F)(F)F)ccc1N1CCN(C(=O)[C@@H](Cc2ccc(Cl)cc2Cl)NC(=O)CN)CC1
- Ki [1]: 1.8 nM
- Activity [2]: Dose-dependent effect

SMILES: CC(C)C[C@H](N)c1cccc(C(F)(F)F)c1N1CCN(C(=O)[C@@H](Cc2ccc(Cl)cc2Cl)NC(=O)CN)CC1
- Ki [1]: 3.3 nM
- Activity [2]: Dose-dependent effect

SMILES: CC(C)C[C@H](N)c1cc(C(F)(F)F)ccc1N1CCN(C(=O)[C@@H](Cc2ccc(Cl)cc2Cl)NC(=O)CCN)CC1
- Ki [1]: 1 nM
- Activity [2]: Dose-dependent effect

SMILES: CC(C)C[C@H](N)c1cccc(F)c1N1CCN(C(=O)[C@@H](Cc2ccc(Cl)cc2Cl)NC(=O)CN)CC1
- Ki [1]: 3.3 nM
- Activity [2]: Dose-dependent effect

SMILES: CC(=O)N[C@H](Cc1ccc(Cl)cc1Cl)C(=O)N1CCN(c2c(F)cccc2[C@@H](N)CC(C)C)CC1
- Ki [1]: 7.5 nM
- Activity [2]: Dose-dependent effect

SMILES: CC(C)C[C@@H](N)c1cccc(F)c1N1CCN(C(=O)[C@@H](Cc2ccc(Cl)cc2Cl)NC(=O)CN)CC1
- Ki [1]: 7.1 nM
- Activity [2]: Dose-dependent effect

SMILES: CC(=O)N[C@H](Cc1ccc(Cl)cc1Cl)C(=O)N1CCN(c2ccc(C(F)(F)F)cc2[C@@H](N)CC(C)C)CC1
- Ki [1]: 1.8 nM
- Activity [2]: Dose-dependent effect

SMILES: CC(=O)N[C@H](Cc1ccc(Cl)cc1Cl)C(=O)N1CCN(c2c(F)cccc2[C@H](N)CC(C)C)CC1
- Ki [1]: 6 nM
- Activity [2]: Dose-dependent effect

SMILES: CC(C)C[C@H](N)c1cc(C(F)(F)F)ccc1N1CCN(C(=O)[C@H](Cc2ccc(Cl)cc2)N2CCCC2=O)CC1
- Ki [1]: 8.8 nM
- Activity [2]: Dose-dependent effect

SMILES: CC(=O)N[C@H](Cc1ccc(Cl)cc1Cl)C(=O)N1CCN(c2c([C@H](N)CC(C)C)cccc2C(F)(F)F)CC1
- Ki [1]: 47 nM
- Activity [2]: Dose-dependent effect

SMILES: CC(C)C[C@@H](N)c1cccc(C(F)(F)F)c1N1CCN(C(=O)[C@@H](Cc2ccc(Cl)cc2Cl)NC(=O)CCN)CC1
- Ki [1]: 29 nM
- Activity [2]: Dose-dependent effect

SMILES: CC(C)C[C@H](N)c1cc(C(F)(F)F)ccc1N1CCN(C(=O)[C@@H](Cc2ccc(Cl)cc2Cl)NC(=O)C2CCNCC2)CC1
- Ki [1]: 0.8 nM
- Activity [2]: Dose-dependent effect

SMILES: CC(C)C[C@H](N)c1cc(C(F)(F)F)ccc1N1CCN(C(=O)[C@@H](Cc2ccc(Cl)cc2)N2CCCC2=O)CC1
- Ki [1]: 11 nM
- Activity [3]: 31%
- Ki [4]: 1800 nM
- Ki [5]: 990 nM
- Ki [6]: 5.5 nM
- Activity [7]: Active
- Activity [8]: Active
- Activity [9]: Active
- Activity [10]: Active
- Activity [11]: 10%
- Activity [12]: 10%
- Activity [13]: 20%
- Activity [14]: 20%
- EC50 [15]: 4100 nM
- Intrinsic activity [15]: 47%
- Ki [16]: 9.1 nM
- clearance [17]: 31 mL/min/kg
- Vd [18]: 5.8 L/kg
- half-life [19]: 2.2 h
- AUC [20]: 2680 ng·h/mL
- concentration at 1 h [21]: 484 ng/g
- Kp at 1 h [22]: 1.27
- Cmax [23]: 270 ng/mL
- Tmax [24]: 0.5 h
- AUC [25]: 2270 ng·h/mL
- bioavailability [26]: 42.4%
- concentration at 4 h [27]: 154 ng/g
- Kp at 4 h [28]: 0.81
- logD [29]: 3.1
- IC50 [2]: 510 nM

SMILES: CC(C)C[C@H](N)c1cccc(C(F)(F)F)c1N1CCN(C(=O)[C@@H](Cc2ccc(Cl)cc2Cl)NC(=O)CCN)CC1
- Ki [1]: 2.5 nM
- Activity [2]: Dose-dependent effect

SMILES: CC(C)C[C@H](N)c1ccccc1N1CCN(C(=O)[C@@H](Cc2ccc(Cl)cc2)N2CCCC2=O)CC1
- Ki [1]: 38 nM
- Activity [2]: Dose-dependent effect

SMILES: CC(C)C[C@H](N)c1cccc(F)c1N1CCN(C(=O)[C@@H](Cc2ccc(Cl)cc2Cl)NC(=O)CCN)CC1
- Ki [1]: 0.8 nM
- Ki [4]: 450 nM
- Ki [5]: 240 nM
- Activity [2]: Dose-dependent effect

SMILES: CC(C)C[C@H](N)c1cc(C(F)(F)F)ccc1N1CCN(C(=O)[C@H](N)Cc2ccc(Cl)cc2Cl)CC1
- Ki [1]: 39 nM
- Activity [2]: Dose-dependent effect

SMILES: CC(C)C[C@H](N)c1cc(C(F)(F)F)ccc1N1CCN(C(=O)[C@@H](Cc2ccc(Cl)cc2Cl)N2CCCC2=O)CC1
- Activity [3]: 21%

SMILES: CC(C)C[C@@H](N)c1cccc(C(F)(F)F)c1N1CCN(C(=O)[C@@H](Cc2ccc(Cl)cc2Cl)NC(=O)CN)CC1
- Ki [1]: 49 nM
- Activity [2]: Dose-dependent effect

SMILES: CC(C)C[C@H](N)c1cccc(F)c1N1CCN(C(=O)[C@@H](Cc2ccc(Cl)cc2Cl)N2CCCC2=O)CC1
- Activity [2]: Dose-dependent effect

SMILES: CC(C)C[C@H](N)c1cc(C(F)(F)F)ccc1N1CCN(C(=O)[C@@H](Cc2ccc(Cl)cc2Cl)N2CCNCC2=O)CC1
- Ki [1]: 4.5 nM
- Activity [3]: 23%
- Ki [4]: 950 nM
- Ki [5]: 360 nM
- AUC(0-t) at 24 h [30]: 1260 ng/g.hr
- clearance [17]: 20 mL/min/kg
- Vd [18]: 13 L/kg
- half-life [19]: 7.7 h
- AUC [20]: 3940 ng·h/mL
- concentration at 1 h [21]: 41 ng/g
- Kp at 1 h [22]: 0.07
- Cmax [23]: 214 ng/mL
- Tmax [24]: 0.5 h
- AUC [25]: 1530 ng·h/mL
- bioavailability [26]: 19.4%
- concentration at 4 h [27]: 46 ng/g
- Kp at 4 h [28]: 0.24
- logD [29]: 2.8
- IC50 [2]: 210 nM

SMILES: CC(C)C[C@@H](N)c1cc(C(F)(F)F)ccc1N1CCN(C(=O)[C@@H](Cc2ccc(Cl)cc2Cl)NC(=O)CCN)CC1
- Ki [1]: 10 nM
- Activity [2]: Dose-dependent effect

— ChEMBL document CHEMBL1149608, “Pyrrolidinones as orally bioavailable antagonists of the human melanocortin-4 receptor with anti-cachectic activity” (Bioorg Med Chem, 2007)
